Measured values reported in patent US8148391B2 (Cephalon, Inc., priority 2006, dated 2012).
Where two headings read alike, the source gives them in different places.

How the values were obtained:
[1] = molecular target: T1, baculovirus-expressed ALK (Homo sapiens, UniProt Q9UM73); test: ALK Kinase Assay (ELISA-type, time-resolved fluorescence); assay type: biochemical
T1 construct: host or cells: baculovirus expression system
Method in brief: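 Wells were coated with phospholipase C-γ at 10 μg/mL in Tris-buffered saline. Adding 30 ng/ml enzyme started the reaction, which ran at 37° C for 15 minutes before Eu-N1 PT66 antibody detection. Percent inhibition versus log10 concentration gave IC50 by variable-slope fit.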

[2] = molecular target: T2, c-Met (cytoplasmic domain) (Homo sapiens, UniProt P08581); test: c-Met Kinase Assay (same methods as for ALK, with modifications); assay type: biochemical
T2 construct: 10 ng/mL c-Met (cytoplasmic domain, Invitrogen Corporation #PV3143); purchased Invitrogen Corporation PV3143
T2 sequence (P08581 956-1390 limits assumed): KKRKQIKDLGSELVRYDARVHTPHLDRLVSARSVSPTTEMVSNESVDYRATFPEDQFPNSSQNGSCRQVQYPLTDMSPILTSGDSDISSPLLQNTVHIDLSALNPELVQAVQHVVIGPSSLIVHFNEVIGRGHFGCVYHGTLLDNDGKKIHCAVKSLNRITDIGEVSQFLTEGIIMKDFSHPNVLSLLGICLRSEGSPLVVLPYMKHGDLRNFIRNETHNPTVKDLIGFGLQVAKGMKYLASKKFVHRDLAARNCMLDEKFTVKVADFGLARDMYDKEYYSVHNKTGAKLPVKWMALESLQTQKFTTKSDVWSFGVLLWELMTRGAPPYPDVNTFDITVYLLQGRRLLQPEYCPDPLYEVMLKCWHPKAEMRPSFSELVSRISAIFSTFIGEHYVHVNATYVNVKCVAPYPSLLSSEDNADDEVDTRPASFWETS
Method in brief: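 Steps: coat wells with PLC-γ (10 μg/mL, Tris-buffered saline); add 10 ng/mL c-Met cytoplasmic domain to initiate; incubate 15 min, 37° C; detect phosphoproduct via Eu-N1 PT66 antibody.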

[3] = ALK kinase inhibition, 1 μM ATP, read-out: ALK Activity
[4] = c-Met kinase inhibition, 1 μM ATP, read-out: cMet Activity
[5] = 1 μM ATP (Km level), 30 ng/ml ALK, 37° C., 15 minutes, read-out: ALK Activity (ALK kinase inhibition, IC50 class)
[6] = 1 μM ATP (Km level), 10 ng/mL c-Met, read-out: cMet Activity (c-Met kinase inhibition, IC50 class)
[7] = 1 μM ATP (Km level), read-out: ALK Activity (ALK Kinase Inhibition, IC50)
[8] = 1 μM ATP (Km level), read-out: cMet Activity (c-Met Kinase Inhibition, IC50)
[9] = ALK kinase inhibition, 1 μM ATP (Km level), read-out: ALK Activity
[10] = c-Met kinase inhibition, 1 μM ATP (Km level), read-out: cMet Activity

T1 sequence (Q9UM73 19-1620): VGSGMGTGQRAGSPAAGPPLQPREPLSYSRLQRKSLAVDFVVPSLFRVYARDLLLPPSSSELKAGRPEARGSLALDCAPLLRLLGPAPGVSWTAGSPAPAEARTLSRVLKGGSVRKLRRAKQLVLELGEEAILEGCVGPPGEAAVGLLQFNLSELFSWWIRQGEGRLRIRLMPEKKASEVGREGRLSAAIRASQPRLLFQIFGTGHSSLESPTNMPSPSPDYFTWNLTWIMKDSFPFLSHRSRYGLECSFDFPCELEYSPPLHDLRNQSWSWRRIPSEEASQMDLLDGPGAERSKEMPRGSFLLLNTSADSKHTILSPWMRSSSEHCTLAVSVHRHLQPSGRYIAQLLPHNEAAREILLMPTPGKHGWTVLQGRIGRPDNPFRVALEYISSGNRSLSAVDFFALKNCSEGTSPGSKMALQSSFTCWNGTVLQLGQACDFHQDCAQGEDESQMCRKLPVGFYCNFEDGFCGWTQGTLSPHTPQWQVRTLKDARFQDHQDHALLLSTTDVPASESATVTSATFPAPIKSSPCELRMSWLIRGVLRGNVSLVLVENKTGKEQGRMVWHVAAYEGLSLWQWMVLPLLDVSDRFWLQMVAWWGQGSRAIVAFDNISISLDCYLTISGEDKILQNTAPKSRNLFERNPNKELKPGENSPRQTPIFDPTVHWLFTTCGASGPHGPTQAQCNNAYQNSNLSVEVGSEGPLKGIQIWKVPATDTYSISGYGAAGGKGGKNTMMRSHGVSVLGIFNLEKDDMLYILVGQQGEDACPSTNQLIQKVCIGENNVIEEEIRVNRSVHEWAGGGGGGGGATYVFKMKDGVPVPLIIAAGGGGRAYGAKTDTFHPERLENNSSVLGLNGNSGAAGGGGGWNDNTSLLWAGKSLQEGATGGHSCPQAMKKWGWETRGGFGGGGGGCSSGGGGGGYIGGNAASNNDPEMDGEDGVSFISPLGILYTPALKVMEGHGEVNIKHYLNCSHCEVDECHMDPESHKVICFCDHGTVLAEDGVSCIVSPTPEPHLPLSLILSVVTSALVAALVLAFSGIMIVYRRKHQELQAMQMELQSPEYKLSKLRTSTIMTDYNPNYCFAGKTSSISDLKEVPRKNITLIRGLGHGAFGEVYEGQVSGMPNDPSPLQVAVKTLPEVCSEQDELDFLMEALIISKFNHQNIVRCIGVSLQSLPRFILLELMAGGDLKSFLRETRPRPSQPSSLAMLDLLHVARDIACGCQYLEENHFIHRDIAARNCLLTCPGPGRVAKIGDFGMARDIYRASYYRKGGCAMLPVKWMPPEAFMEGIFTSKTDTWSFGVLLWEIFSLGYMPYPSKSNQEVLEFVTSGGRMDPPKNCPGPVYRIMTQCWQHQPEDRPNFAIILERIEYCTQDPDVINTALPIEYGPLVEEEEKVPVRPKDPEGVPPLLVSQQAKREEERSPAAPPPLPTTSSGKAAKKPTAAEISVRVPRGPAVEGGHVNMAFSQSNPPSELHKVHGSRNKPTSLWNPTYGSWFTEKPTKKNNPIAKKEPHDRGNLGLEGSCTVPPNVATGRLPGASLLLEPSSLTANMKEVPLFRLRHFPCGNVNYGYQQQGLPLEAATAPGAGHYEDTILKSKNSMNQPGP

Compound | IC50 [1, 7] [µM] | IC50 [2, 8] [µM] | IC50 [1, 9] [µM] | IC50 [2, 10] [µM] | further results
CNC(=O)c1cccc(F)c1Nc1nc(Nc2ccc3c(c2)NC(=O)CN(C(C)=O)C3)ncc1Cl [Example 1848, 2-[2-(4-Acetyl-2-oxo-2,3,4,5-tetrahydro-1H-benzo[e][1,4]diazepin-8-ylamino)-5-chloro-pyrimidin-4-ylamino]-3-fluoro-N-methyl-benzamide] | – | – | – | – | IC50 [1, 3]: 0.1 to 1 µM; IC50 [2, 4]: 0.1 to 1 µM
COCCN1CCc2ccc(Nc3ncc(Cl)c(Nc4c(F)cccc4OC4CCOCC4)n3)cc2CC1 [Example 1282, 5-Chloro-N(4)-[2-fluoro-6-(tetrahydro-pyran-4-yloxy)-phenyl]-N(2)-[3-(2-methoxy-ethyl)-2,3,4,5-tetrahydro-1H-3-benzazepin-7-yl]-pyrimidine-2,4-diamine] | – | – | – | – | IC50 [1, 5]: < 0.1 µM; IC50 [2, 6]: 1 to 10 µM
CNCc1ccccc1Nc1nc(Nc2ccc3c(c2)CCOC(=O)N3C)ncc1Cl [Example 1791, 2-[5-Chloro-4-(2-methylaminomethyl-phenylamino)-pyrimidin-2-ylamino]-5-methyl-8,9-dihydro-5H-7-oxa-5-aza-benzocyclohepten-6-one] | – | – | – | – | IC50 [1, 3]: 1 to 10 µM; IC50 [2, 4]: 1 to 10 µM
CC(C)[C@H](Nc1nc(Nc2ccc3c(c2)CC(=O)N(C)CC3)ncc1Cl)C(N)=O [Example 1823, (S)-2-[5-Chloro-2-(3-methyl-4-oxo-2,3,4,5-tetrahydro-1H-benzo[d]azepin-7-ylamino)-pyrimidin-4-ylamino]-3-methyl-butyramide] | – | – | – | – | IC50 [1, 3]: 1 to 10 µM; IC50 [2, 4]: > 10 µM
NC(=O)C1C2CCC(C2)C1Nc1nc(Nc2ccc3c(c2)CCN(CC(O)C(F)(F)F)CC3)ncc1Cl [Example 331, (2-exo,3-exo)-3-{5-Chloro-2-[3-((S)-3,3,3-trifluoro-2-hydroxy-propyl)-2,3,4,5-tetrahydro-1H-benzo[d]azepin-7-ylamino]-pyrimidin-4-ylamino}-bicyclo[2.2.1]heptane-2-carboxylic acid amide] | – | – | < 0.1 | 0.1 to 1 | –
CNC(=O)c1cccc(F)c1Nc1nc(Nc2ccc3c(c2)N(C(=O)CN(C)C)CCCC3(C)C)ncc1Cl [Example 1630, 2-{5-Chloro-2-[1-(2-dimethylamino-acetyl)-5,5-dimethyl-2,3,4,5-tetrahydro-1H-benzo[b]azepin-8-ylamino]-pyrimidin-4-ylamino}-3-fluoro-N-methyl-benzamide] | – | – | – | – | IC50 [1, 3]: 0.1 to 1 µM; IC50 [2, 4]: 0.1 to 1 µM
COc1cc2c(cc1Nc1ncc(Cl)c(Nc3ccccc3S(=O)(=O)N(C)C)n1)CCN(C(CF)CF)CC2 [Example 1393, {5-Chloro-2-[3-(2-fluoro-1-fluoromethyl-ethyl)-8-methoxy-2,3,4,5-tetrahydro-1H-benzo[d]azepin-7-ylamino]-pyrimidin-4-ylamino}-N,N-dimethyl-benzenesulfonamide] | – | – | – | – | IC50 [1, 5]: < 0.1 µM; IC50 [2, 6]: > 10 µM
COCCN1CCc2ccc(Nc3ncc(Cl)c(N[C@H]4CC[C@@H](N(CC#N)S(C)(=O)=O)CC4)n3)cc2CC1 [Example 1384, cis-N-(4-{5-Chloro-2-[3-(2-methoxy-ethyl)-2,3,4,5-tetrahydro-1H-benzo[d]azepin-7-ylamino]-pyrimidin-4-ylamino}-cyclohexyl)-N-cyanomethyl-methanesulfonamide] | – | – | – | – | IC50 [1, 5]: 0.1 to 1 µM; IC50 [2, 6]: 1 to 10 µM
CNC(=O)c1ccccc1Nc1nc(Nc2ccc3c(c2)CN(CCOC(C)=O)CCS3)ncc1Cl [Example 527, Acetic acid 2-{2-[5-Chloro-4-(2-methylcarbamoyl-phenylamino)-pyrimidin-2-ylamino]-6,7-dihydro-9H-5-thia-8-aza-benzoylcyclohepten-8-yl}-ethyl ester] | < 0.1 | < 0.1 | – | – | –
COCCNC1CCCc2c(ccc(Nc3ncc(Cl)c(N[C@@H]4CCCC[C@H]4NS(C)(=O)=O)n3)c2OC)C1 (stereo partly drawn) [Example 958, N-((1R,2R)-2-{5-Chloro-2-[1-methoxy-6-(2-methoxy-ethylamino)-6,7,8,9-tetrahydro-5H-benzocyclohepten-2-ylamino]-pyrimidin-4-ylamino}-cyclohexyl)-methanesulfonamide] | < 0.1 | > 10 | – | – | –
COc1cc2c(cc1Nc1ncc(Cl)c(Nc3ccc(N4CCN(C(C)C)CC4)c4c3C(=O)N(C)C4)n1)CCN(CC(=O)N(C)C)CC2 [Example 951, 2-(7-{5-Chloro-4-[7-(4-isopropyl-piperazin-1-yl)-2-methyl-3-oxo-2,3-dihydro-1H-isoindol-4-ylamino]-pyrimidin-2-ylamino}-8-methoxy-1,2,4,5-tetrahydro-3-benzazepin-3-yl)-N,N-dimethyl-acetamide] | < 0.1 | > 10 | – | – | –
CNC(=O)C1C2C=CC(C2)C1Nc1nc(Nc2cc3c(cc2OC)CCN(CCOC)CC3)ncc1Cl (stereo not drawn) [Example 604, (2-exo-3-exo)-3-{5-Chloro-2-[8-methoxy-3-(2-methoxy-ethyl)-2,3,4,5-tetrahydro-1H-benzo[d]azepin-7-ylamino]-pyrimidin-4-ylamino}-bicyclo[2.2.1]hept-5-ene-2-carboxylic acid methylamide] | < 0.1 | > 10 | – | – | –
N-((1R,2R)-2-{5-Chloro-2-[7-(2,2,2-trifluoro-ethylamino)-6,7,8,9-tetrahydro-5H-benzocyclohepten-2-ylamino]-pyrimidin-4-ylamino}-cyclohexyl)-methanesulfonamide [Example 688] | 0.1 to 1 | > 10 | – | – | –
O=C1CCCc2ccc(Nc3ncc(Cl)c(Nc4ccccc4OCCN4CCOCC4)n3)cc2N1 [Example 1465, 8-{5-Chloro-4-[2-(2-morpholin-4-yl-ethoxy)-phenylamino]-pyrimidin-2-ylamino}-1,3,4,5-tetrahydro-benzo[b]azepin-2-one] | – | – | – | – | IC50 [1, 3]: > 10 µM; IC50 [2, 4]: > 10 µM

The next lines start with results.

IC50 [1, 7] [µM] | IC50 [2, 8] [µM] | IC50 [1, 9] [µM] | IC50 [2, 10] [µM] | Compound | further results
< 0.1 | 1 to 10 | – | – | COc1c(Nc2ncc(Cl)c(Nc3ccccc3S(=O)(=O)N3CCC(O)C3)n2)ccc2c1CCC(N1CCOCC1)CC2 (mixture of isomers) [Example 906, 1-{2-[5-Chloro-2-(1-methoxy-7-morpholin-4-yl-6,7,8,9-tetrahydro-5H-benzocyclohepten-2-ylamino)-pyrimidin-4-ylamino]-benzenesulfonyl}-pyrrolidin-3-ol] | –
– | – | < 0.1 | < 0.1 | CNC(=O)c1ccccc1Nc1nc(Nc2ccc3c(c2)N(C)CCN(CCOC)C3)ncc1Cl [Example 484, 2-{5-Chloro-2-[4-(2-methoxy-ethyl)-1-methyl-2,3,4,5-tetrahydro-1H-benzo[e][1,4]diazepin-8-ylamino]-pyrimidin-4-ylamino}-N-methyl-benzamide] | –
– | – | < 0.1 | > 10 | COc1c(Nc2ncc(Cl)c(N[C@@H]3CCCC[C@H]3NS(C)(=O)=O)n2)ccc2c1CCCC(=O)N2C [Example 118, N-{(1R,2R)-2-[5-Chloro-2-(6-methoxy-1-methyl-2-oxo-2,3,4,5-tetrahydro-1H-benzo[b]azepin-7-ylamino)-pyrimidin-4-ylamino]-cyclohexyl}-methanesulfonamide] | –
– | – | < 0.1 | > 10 | CCN1C(=O)CCCc2cc(Nc3ncc(Cl)c(Nc4ccc(N5CCOCC5)cc4OC)n3)c(OC)cc21 [Example 135, 7-[5-Chloro-4-(2-methoxy-4-morpholin-4-yl-phenylamino)-pyrimidin-2-ylamino]-1-ethyl-8-methoxy-1,3,4,5-tetrahydro-benzo[b]azepin-2-one] | –
0.1 to 1 | > 10 | – | – | COc1cc(N2CCOCC2)ccc1Nc1nc(Nc2cccc3c2OCCCC3(C)C)ncc1Cl [Example 876, 5-Chloro-N*2*-(5,5-dimethyl-2,3,4,5-tetrahydro-benzo[b]oxepin-9-yl)-N*4*-(2-methoxy-4-morpholin-4-yl-phenyl)-pyrimidine-2,4-diamine] | –
– | – | < 0.1 | > 10 | COc1cc2c(cc1Nc1ncc(Cl)c(N[C@@H]3CCCC[C@H]3NS(C)(=O)=O)n1)CCN(CC(F)(F)F)CC2 [Example 248, N-((1R,2R)-2-{5-Chloro-2-[8-methoxy-3-(2,2,2-trifluoro-ethyl)-2,3,4,5-tetrahydro-1H-benzo[d]azepin-7-ylamino]-pyrimidin-4-ylamino}-cyclohexyl)-methanesulfonamide] | –
< 0.1 | > 10 | – | – | COc1cc2c(cc1Nc1ncc(Cl)c(N[C@H]3[C@@H](C(N)=O)[C@@H]4C=C[C@H]3C4)n1)CCN(C(C)C)CC2 [Example 776, (1S,2S,3R,4R)-3-[5-Chloro-2-(3-isopropyl-8-methoxy-2,3,4,5-tetrahydro-1H-benzo[d]azepin-7-ylamino)-pyrimidin-4-ylamino]-bicyclo[2.2.1]hept-5-ene-2-carboxylic acid amide] | –
– | – | 0.1 to 1 | 0.1 to 1 | CNC(=O)c1cccc(OC)c1Nc1nc(Nc2ccc3c(c2)CCN(CCOC)CC3)ncc1Cl [Example 315, 2-{5-Chloro-2-[3-(2-methoxy-ethyl)-2,3,4,5-tetrahydro-1H-benzo[d]azepin-7-ylamino]-pyrimidin-4-ylamino}-3-methoxy-N-methyl-benzamide] | –
– | – | > 10 | > 10 | CNC(=O)c1ccccc1Nc1nc(Nc2cccc3c2C(=O)NC(C)CN3C(=O)C(F)(F)F)ncc1Cl (stereo not shown) [Example 229, 2-{5-Chloro-2-[3-methyl-5-oxo-1-(2,2,2-trifluoro-acetyl)-2,3,4,5-tetrahydro-1H-benzo[e][1,4]diazepin-6-ylamino]-pyrimidin-4-ylamino}-N-methyl-benzamide] | –
